From patent publication US10093678B2, “Azaspiro derivatives as TRPM8 antagonists” (RaQualia Pharma Inc., priority 2014, dated 2018)

What follows are compounds tested against T1, human TRPM8 (Homo sapiens, UniProt Q7Z2W7) (assay: Menthol-induced Ca2+ influx in HEK293 cells stably expressing human TRPM8). Details: 30 microM menthol-induced Ca2+ influx, read-out: IC50 against TRPM8.
T1 construct: expressed in transfected cells; host or cells: HEK293
Type: cell-based
In short: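 HEK293 cells stably expressing human TRPM8 were loaded with Fluo4-AM for 1 h at room temperature, preincubated 5 min with compound, then challenged with 30 microM menthol. Calcium rise was read by FDSS imaging. IC50 came from 11-point curves using duplicate-well means.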

T1 sequence (Q7Z2W7 whole entry): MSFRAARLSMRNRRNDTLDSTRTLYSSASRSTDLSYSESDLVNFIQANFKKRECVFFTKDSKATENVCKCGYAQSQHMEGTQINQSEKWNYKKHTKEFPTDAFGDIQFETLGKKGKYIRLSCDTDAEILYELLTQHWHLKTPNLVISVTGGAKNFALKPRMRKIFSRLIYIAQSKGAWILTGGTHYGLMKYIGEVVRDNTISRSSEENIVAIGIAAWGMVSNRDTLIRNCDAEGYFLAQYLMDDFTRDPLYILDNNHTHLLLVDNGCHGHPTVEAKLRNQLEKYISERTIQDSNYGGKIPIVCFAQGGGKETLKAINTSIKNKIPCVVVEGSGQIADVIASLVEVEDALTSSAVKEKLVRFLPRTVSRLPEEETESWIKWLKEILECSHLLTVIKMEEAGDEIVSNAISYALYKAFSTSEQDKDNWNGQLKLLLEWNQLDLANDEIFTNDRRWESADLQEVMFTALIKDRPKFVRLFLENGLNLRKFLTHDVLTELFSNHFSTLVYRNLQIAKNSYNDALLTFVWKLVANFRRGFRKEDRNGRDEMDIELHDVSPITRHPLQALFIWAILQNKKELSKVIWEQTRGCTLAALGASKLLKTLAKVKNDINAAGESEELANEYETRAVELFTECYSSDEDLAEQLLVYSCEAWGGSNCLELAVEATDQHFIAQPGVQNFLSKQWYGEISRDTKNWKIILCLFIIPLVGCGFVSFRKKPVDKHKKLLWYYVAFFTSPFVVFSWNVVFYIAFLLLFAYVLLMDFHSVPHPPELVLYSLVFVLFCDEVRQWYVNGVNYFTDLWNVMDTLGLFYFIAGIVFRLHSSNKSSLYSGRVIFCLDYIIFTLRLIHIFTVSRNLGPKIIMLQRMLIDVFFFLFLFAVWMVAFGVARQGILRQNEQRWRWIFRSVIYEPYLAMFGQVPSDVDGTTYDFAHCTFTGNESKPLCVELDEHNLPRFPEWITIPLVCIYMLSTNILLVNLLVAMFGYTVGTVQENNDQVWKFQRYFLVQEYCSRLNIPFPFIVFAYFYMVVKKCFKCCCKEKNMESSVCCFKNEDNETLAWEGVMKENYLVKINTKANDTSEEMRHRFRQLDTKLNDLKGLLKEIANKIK

Compound	IC50
Cc1c(C(=O)CN2C(=O)NC3(CCC(F)(F)CC3)C2=O)cn(C)c1-c1cccc2ccncc12 [Example 16-27]	< 100 nM
Cc1ncccc1-c1c(C)c(C(=O)CN2C(=O)NC3(CCC(F)(F)CC3)C2=O)cn1C [Example 16-28]	< 500 nM
Cn1c(C(=O)CN2C(=O)NC3(CCC(F)(F)CC3)C2=O)ccc1-c1ccccc1C#N [Example 16-29]	< 500 nM
Cn1c(C(=O)CN2C(=O)NC3(CCC(F)(F)CC3)C2=O)ccc1-c1ccccc1CO [Example 16-30]	< 500 nM
Cn1c(C(=O)CN2C(=O)NC3(CCC(F)(F)CC3)C2=O)ccc1-c1cncc(F)c1 [Example 16-31]	< 500 nM
Cc1ccccc1-c1ccc(C(=O)CN2C(=O)NC3(CCC(F)(F)CC3)C2=O)n1C [Example 16-32]	< 500 nM
Cc1cc(C(=O)CN2C(=O)NC3(CCC(F)(F)CC3)C2=O)n(C)c1-c1cncc(C(N)=O)c1 [Example 16-33]	< 500 nM
Cc1c(C(=O)CN2C(=O)NC3(CCC(F)(F)CC3)C2=O)cn(C)c1-c1ccccc1CO [Example 16-34]	< 500 nM
Cc1cc(C(=O)CN2C(=O)NC3(CCC(F)(F)CC3)C2=O)n(C)c1-c1cccc2[nH]ncc12 [Example 16-35]	< 500 nM
Cn1c(-c2cccc(F)c2)cnc1C(=O)CN1C(=O)NC2(CCC(F)(F)CC2)C1=O [Example 17-1]	< 100 nM
Cn1c(-c2cccc3ccncc23)cnc1C(=O)CN1C(=O)NC2(CCC(F)(F)CC2)C1=O [Example 17-2]	< 100 nM
Cn1c(-c2cccc(C#N)c2)cnc1C(=O)CN1C(=O)NC2(CCC(F)(F)CC2)C1=O [Example 17-3]	< 100 nM
Cn1c(C(=O)CN2C(=O)NC3(CCC(F)(F)CC3)C2=O)nc(C2CC2)c1-c1ccccc1 [Example 17-4]	< 100 nM
Cn1c(C(=O)CN2C(=O)NC3(CCC(F)(F)CC3)C2=O)nc(C2CC2)c1-c1cccnc1 [Example 17-5]	< 100 nM
Cc1nc(C(=O)CN2C(=O)NC3(CCC(F)(F)CC3)C2=O)n(C)c1-c1cccc(F)c1 [Example 17-6]	< 10 nM
Cc1nc(C(=O)CN2C(=O)NC3(CCC(F)(F)CC3)C2=O)n(C)c1-c1ccccc1 [Example 17-7]	< 100 nM
Cc1nc(C(=O)CN2C(=O)NC3(CCC(F)(F)CC3)C2=O)n(C)c1-c1cccc(C#N)c1 [Example 17-8]	< 100 nM
Cc1nc(C(=O)CN2C(=O)NC3(CCC(F)(F)CC3)C2=O)n(C)c1-c1cccc2ccncc12 [Example 17-9]	< 100 nM
Cc1nc(C(=O)CN2C(=O)NC3(CCC(F)(F)CC3)C2=O)n(C)c1-c1ccccc1CO [Example 17-10]	< 100 nM
Cc1nc(C(=O)CN2C(=O)NC3(CCC(F)(F)CC3)C2=O)n(C)c1-c1cc(F)cc(F)c1 [Example 17-11]	< 100 nM
Cc1nc(C(=O)CN2C(=O)NC3(CCC(F)(F)CC3)C2=O)n(C)c1-c1cccnc1 [Example 17-12]	< 500 nM
Cc1ncccc1-c1c(C)nc(C(=O)CN2C(=O)NC3(CCC(F)(F)CC3)C2=O)n1C [Example 17-13]	< 500 nM
Cc1cccc(-c2cnc(C(=O)CN3C(=O)NC4(CCC(F)(F)CC4)C3=O)n2C)c1 [Example 17-14]	< 500 nM
Cn1c(-c2cccnc2)cnc1C(=O)CN1C(=O)NC2(CCC(F)(F)CC2)C1=O [Example 17-15]	< 500 nM

Compound	IC50
Cc1nc(C(=O)CN2C(=O)NC3(CCC(F)(F)CC3)C2=O)sc1-c1cccnc1 [Example 18-1]	< 100 nM
Cc1ccncc1-c1sc(C(=O)CN2C(=O)NC3(CCC(F)(F)CC3)C2=O)nc1C [Example 18-2]	< 10 nM
Cc1nc(C(=O)CN2C(=O)NC3(CCC(F)(F)CC3)C2=O)sc1-c1cccc(C#N)c1 [Example 18-3]	< 100 nM
Cc1nc(C(=O)CN2C(=O)NC3(CCC(F)(F)CC3)C2=O)sc1-c1ccccc1CO [Example 18-4]	< 100 nM
Cc1nc(C(=O)CN2C(=O)NC3(CCC(F)(F)CC3)C2=O)sc1-c1cccc(F)c1 [Example 18-5]	< 100 nM
Cc1nc(C(=O)CN2C(=O)NC3(CCC(F)(F)CC3)C2=O)sc1-c1ccccc1C#N [Example 18-6]	< 100 nM
Cc1nc(C(=O)CN2C(=O)NC3(CCC(F)(F)CC3)C2=O)sc1-c1cccc(C(N)=O)c1 [Example 18-7]	< 500 nM
Cc1ncccc1-c1sc(C(=O)CN2C(=O)NC3(CCC(F)(F)CC3)C2=O)nc1C [Example 18-8]	< 500 nM
Cc1nc(C(=O)CN2C(=O)NC3(CCC(F)(F)CC3)C2=O)sc1-c1cncc(F)c1 [Example 18-9]	< 100 nM
Cc1nc(C(=O)CN2C(=O)NC3(CCC(F)(F)CC3)C2=O)sc1-c1cccc2ccncc12 [Example 18-10]	< 100 nM
Cc1nc(C(=O)CN2C(=O)NC3(CCC(F)(F)CC3)C2=O)sc1-c1cc(F)cc(F)c1 [Example 18-11]	< 100 nM
Cc1nc(C(=O)CN2C(=O)NC3(CCC(F)(F)CC3)C2=O)sc1-c1cccc2c1CNC2=O [Example 18-12]	< 500 nM
Cc1nc(C(=O)CN2C(=O)NC3(CCC(F)(F)CC3)C2=O)sc1-c1cncc(C#N)c1 [Example 18-13]	< 500 nM
Cc1cccc(N(C)c2ccc(C(=O)CN3C(=O)NC4(CCCCC4)C3=O)cn2)c1 [Example 19-1, 3-(2-(6-(methyl(m-tolyl)amino)pyridin-3-yl)-2-oxoethyl)-1,3-diazaspiro[4.5]decane-2,4-dione]	< 100 nM
CN(c1ccccn1)c1ccc(C(=O)CN2C(=O)NC3(CCCCC3)C2=O)cn1 [Example 19-2]	< 100 nM
CCN(c1ccccc1)c1ccc(C(=O)CN2C(=O)NC3(CCCCC3)C2=O)cn1 [Example 19-3]	< 100 nM
CN(c1cccnc1)c1ccc(C(=O)CN2C(=O)NC3(CCCCC3)C2=O)cn1 [Example 19-4]	< 100 nM
CN(c1ccccc1)c1ccc(C(=O)CN2C(=O)NC3(CCCCC3)C2=O)cn1 [Example 19-5]	< 100 nM
CN(c1ccccn1)c1ccc(C(=O)CN2C(=O)NC3(CCC(F)(F)CC3)C2=O)cn1 [Example 19-6]	< 100 nM
O=C(CN1C(=O)NC2(CCC(F)(F)CC2)C1=O)c1ccc(N2CCOc3ccccc32)nc1 [Example 19-7]	< 100 nM
O=C(CN1C(=O)NC2(CCC(F)(F)CC2)C1=O)c1ccc(-n2ccc3ccncc32)nc1 [Example 19-8]	< 100 nM
CN(c1ccccc1)c1ccc(C(=O)CN2C(=O)NC3(CCC(F)(F)CC3)C2=O)cn1 [Example 19-9]	< 100 nM
O=C(CN1C(=O)NC2(CCC(F)(F)CC2)C1=O)c1ccc(-n2ccc3cccnc32)nc1 [Example 19-10]	< 100 nM
O=C(CN1C(=O)NC2(CCC(F)(F)CC2)C1=O)c1ccc(N2CCCc3ccccc32)nc1 [Example 19-11]	< 100 nM

Compound	IC50
Cc1cc2ccccc2n1-c1ccc(C(=O)CN2C(=O)NC3(CCC(F)(F)CC3)C2=O)cn1 [Example 19-12]	< 100 nM
O=C(CN1C(=O)NC2(CCC(F)(F)CC2)C1=O)c1ccc(N2C(=O)COc3ccccc32)nc1 [Example 19-13]	< 100 nM
O=C(CN1C(=O)NC2(CCC(F)(F)CC2)C1=O)c1ccc(-n2c(=O)oc3ccccc32)nc1 [Example 19-14]	< 10 nM
CN(c1cccc(C(F)(F)F)c1)c1ccc(C(=O)CN2C(=O)NC3(CCC(F)(F)CC3)C2=O)cn1 [Example 19-15]	< 500 nM
CN(c1ccc(C(=O)CN2C(=O)NC3(CCC(F)(F)CC3)C2=O)cc1)c1ccccn1 [Example 19-16]	< 100 nM
O=C(CN1C(=O)NC2(CCC(F)(F)CC2)C1=O)c1ccc(-n2ccc3cccnc32)cc1 [Example 19-17]	< 100 nM
O=C(CN1C(=O)NC2(CCC(F)(F)CC2)C1=O)c1ccc(-n2ccc3ccccc32)cc1 [Example 19-18]	< 100 nM
Cc1cc2ccccc2n1-c1ccc(C(=O)CN2C(=O)NC3(CCC(F)(F)CC3)C2=O)cc1 [Example 19-19]	< 500 nM
O=C(CN1C(=O)NC2(CCC(F)(F)CC2)C1=O)c1ccc(N2CCOc3ccccc32)cc1 [Example 19-20]	< 100 nM
O=C(CN1C(=O)NC2(CCC(F)(F)CC2)C1=O)c1ccc(N2C(=O)COc3ccccc32)cc1 [Example 19-21]	< 100 nM
O=C(CN1C(=O)NC2(CCC(F)(F)CC2)C1=O)c1ccc(-n2c(=O)[nH]c3ccccc32)cc1 [Example 19-22]	< 100 nM
Cn1c(=O)n(-c2ccc(C(=O)CN3C(=O)NC4(CCC(F)(F)CC4)C3=O)cc2)c2ccccc21 [Example 19-23]	< 100 nM
O=C(CN1C(=O)NC2(CCC(F)(F)CC2)C1=O)c1cnc(-n2cnc3ccccc32)cn1 [Example 19-24]	< 100 nM
O=C(CN1C(=O)NC2(CCC(F)(F)CC2)C1=O)c1cnc(N2C(=O)COc3ccccc32)cn1 [Example 19-25]	< 100 nM
O=C(CN1C(=O)NC2(CCC(F)(F)CC2)C1=O)c1ccc(N2C(=O)Cc3ccccc32)cc1 [Example 19-26]	< 100 nM
O=C(CN1C(=O)NC2(CCC(F)(F)CC2)C1=O)c1ccc(N2C(=O)CCc3ccccc32)cc1 [Example 19-27]	< 500 nM
O=C(CN1C(=O)NC2(CCC(F)(F)CC2)C1=O)c1ccc(-n2c(=O)oc3ccccc32)cc1 [Example 19-30]	< 10 nM
Cc1nc2ccccc2n1-c1cnc(C(=O)CN2C(=O)NC3(CCC(F)(F)CC3)C2=O)cn1 [Example 19-33]	< 10 nM
O=C(CN1C(=O)NC2(CCC(F)(F)CC2)C1=O)c1ccc(-n2cnc3cncnc32)cc1 [Example 19-34]	< 500 nM
O=C(CN1C(=O)NC2(CCC(F)(F)CC2)C1=O)c1ccc(-n2cnc3ncncc32)cc1 [Example 19-35]	< 500 nM
O=C(CN1C(=O)NC2(CCC(F)(F)CC2)C1=O)c1ccc(-n2cnc3nccnc32)cc1 [Example 19-37]	< 100 nM
Cc1nc2nccnc2n1-c1ccc(C(=O)CN2C(=O)NC3(CCC(F)(F)CC3)C2=O)cc1 [Example 19-39]	< 500 nM
O=C(CN1C(=O)NC2(CCCCC2)C1=O)c1ccc(Oc2cccc(Cl)c2)nc1 [Example 20-1, 3-(2-(6-(3-chlorophenoxy)pyridin-3-yl)-2-oxoethyl)-1,3-diazaspiro[4.5]decane-2,4-dione]	< 100 nM
O=C(CN1C(=O)NC2(CCCCC2)C1=O)c1ccc(Oc2cccnc2)nc1 [Example 20-2]	< 500 nM
